Consider 23 compounds from patent publication EP4818168A1, “FUSED RING COMPOUND, PHARMACEUTICAL COMPOSITION THEREOF AND USE THEREOF” (priority 2023, dated 2025).

Like-named read-outs stand apart in the source and are kept apart here.

In this assay the target is T1, AURKA (Homo sapiens, UniProt O14965).
T1 construct: endogenous in cells; host or cells: Jurkat cells
T1 sequence (O14965 1-403): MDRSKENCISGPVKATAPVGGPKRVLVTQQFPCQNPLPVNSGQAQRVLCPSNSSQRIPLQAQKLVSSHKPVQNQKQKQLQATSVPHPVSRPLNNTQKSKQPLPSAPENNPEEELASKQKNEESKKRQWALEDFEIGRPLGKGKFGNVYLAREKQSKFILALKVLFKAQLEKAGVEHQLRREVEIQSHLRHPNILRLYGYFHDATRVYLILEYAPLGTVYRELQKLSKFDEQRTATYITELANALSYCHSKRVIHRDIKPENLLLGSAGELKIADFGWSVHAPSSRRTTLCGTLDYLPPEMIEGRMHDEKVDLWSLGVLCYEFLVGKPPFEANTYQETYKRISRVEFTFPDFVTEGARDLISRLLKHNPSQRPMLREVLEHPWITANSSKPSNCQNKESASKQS
Format: cell-based. The following applies: Jurkat cells, 24 h. The text has this: WB is a classical biochemical experimental method used to detect the abundance of a target protein in a sample of cells or biological tissue. It relies on specific antigen-antibody binding to detect protein signals from the sample processed by gel electrophoresis: the protein specifically binds to a primary antibody at an epitope; the primary antibody is then conjugated with a secondary antibody to amplify the signal cascade; the signal is read out by chemiluminescent or fluorescent detection. The intracellular protein content is ultimately characterized by the intensity of the optical signals. […] The DC50 value can be calculated by curve fitting of the protein WB exposure signals.
The experimental procedure is as follows: • 1. Seed Jurkat cells into a 12-well plate at 1×10^6 cells/500 µL/well. • 2. Mix the culture medium with the compound to a concentration that is twice the desired final concentration. […] Transfer the cell suspension to a centrifuge tube. Rinse the 12-well plate with PBS and then transfer the PBS from the plate to the same centrifuge tube. Centrifuge at 3000 rpm for 5 min at room temperature. Aspirate the supernatant using a vacuum pump. […] Lyse on ice for 20 min. • 4. Centrifuge the lysed sample at 13000 rpm for 20 min at 4°C. Mix the supernatant with 5× protein loading buffer. Boil at 100°C for 5 min and then cool. Store the denatured protein sample at -20°C. • 5. […] Run electrophoresis at 80 V for 20 min, and then at 120 V constant voltage for 60 min. • 6. Transfer the protein onto a nitrocellulose membrane in an ice bath at 250 mA constant current for 90 min. • 7. […] Incubate with a primary antibody overnight at 4°C. • 9. […] Incubate with a secondary antibody for 1-2 h at room temperature. • 10. […] Expose and image the membrane using a LICOR Odyssey DLx imager.

Take `COc1cc(Nc2ncc3c(n2)-c2ccc(Cl)cc2C(c2c(F)cccc2OC)=NC3)ccc1C(=O)N[C@H]1C[C@@H](C#Cc2cccc3c2CN(C2CCC(=O)NC2=O)C3=O)C1` (relative stereo) [Compound A6]: where the note is “Table 1”, the “Percentage of AURKA Degradation Induced by 100 nM Compound in Jurkat Cells” value (from here on “Percentage … by 100 nM Compound in Jurkat Cells”) is reported as “++ (30% < Degradation ≤ 70%)” and the “Percentage of AURKA Degradation Induced by 1 µM Compound in Jurkat Cells” value (from here on “Percentage … by 1 µM Compound in Jurkat Cells”) was “+ (Degradation ≤ 30%)”.

Take `COc1cc(Nc2ncc3c(n2)-c2ccc(Cl)cc2C(c2c(F)cccc2OC)=NC3)ccc1C(=O)NCCOCCNc1cccn2c(N3CCC(=O)NC3=O)cnc12` [Compound A20]: for the setting “Table 1”, the “Percentage … by 100 nM Compound in Jurkat Cells” value is on record as “++ (30% < Degradation ≤ 70%)” and the “Percentage … by 1 µM Compound in Jurkat Cells” value is reported as “++ (30% < Degradation ≤ 70%)”.

Turning to `COc1cc(Nc2ncc3c(n2)-c2ccc(Cl)cc2C(c2c(F)cccc2OC)=NC3)ccc1C(=O)NCCN1CCN(c2ccc(-n3ccc(=O)[nH]c3=O)cn2)CC1` [Compound A31], under “Table 1”, the “Percentage … by 100 nM Compound in Jurkat Cells” value was “++ (30% < Degradation ≤ 70%)” and the “Percentage … by 1 µM Compound in Jurkat Cells” value is on record as “++ (30% < Degradation ≤ 70%)”.

With `O=C1CCN(c2ccc(C#C[C@H]3C[C@H](NC(=O)c4ccc(Nc5ncc6c(n5)-c5ccc(Cl)cc5C(c5c(F)cccc5F)=NC6)cc4)C3)cc2)C(=O)N1` [Compound A53], for the setting “Table 1”, the “Percentage … by 100 nM Compound in Jurkat Cells” value is “++ (30% < Degradation ≤ 70%)” and the “Percentage … by 1 µM Compound in Jurkat Cells” value is recorded as “++ (30% < Degradation ≤ 70%)”.

For `O=C1CCN(c2ccc(N3CC4(CC(NC(=O)c5ccc(Nc6ncc7c(n6)-c6ccc(Cl)cc6C(c6c(F)cccc6F)=NC7)cc5)C4)C3)nc2)C(=O)N1` [Compound A60], where the note is “Table 1”, the “Percentage … by 100 nM Compound in Jurkat Cells” value is listed as “+++ (Degradation > 70%)” and the “Percentage … by 1 µM Compound in Jurkat Cells” value is given as “+++ (Degradation > 70%)”.

Consider `O=C1CCN(c2cccc(N3CC4(CC(NC(=O)c5ccc(Nc6ncc7c(n6)-c6ccc(Cl)cc6C(c6c(F)cccc6F)=NC7)cc5)C4)C3)c2)C(=O)N1` [Compound A62], for which, where the note is “Table 1”, the “Percentage … by 100 nM Compound in Jurkat Cells” value was “++ (30% < Degradation ≤ 70%)” and the “Percentage … by 1 µM Compound in Jurkat Cells” value is given as “++ (30% < Degradation ≤ 70%)”.

Turning to `CN1C(=O)CCN(c2ccc(N3CCC4(CC3)CC(NC(=O)c3ccc(Nc5ncc6c(n5)-c5ccc(Cl)cc5C(c5c(F)cccc5F)=NC6)cc3)C4)nc2)C1=O` [Compound A82], where the note is “Table 2”, the “Percentage … by 100 nM Compound in Jurkat Cells” value was “+ (Degradation ≤ 30%)” and the “Percentage … by 1 µM Compound in Jurkat Cells” value is on record as “+ (Degradation ≤ 30%)”.

Regarding `O=C1CCN(c2ccc(N3CC(N4CC(NC(=O)c5ccc(Nc6ncc7c(n6)-c6ccc(Cl)cc6C(c6c(F)cccc6F)=NC7)cc5)C4)C3)nc2)C(=O)N1` [Compound A84], under “Table 2”, the “Percentage … by 100 nM Compound in Jurkat Cells” value was “++ (30% < Degradation ≤ 70%)” and the “Percentage … by 1 µM Compound in Jurkat Cells” value is “+++ (Degradation > 70%)”.

In the case of `O=C1CCN(C23CCC(N4CCN(CCNC(=O)c5ccc(Nc6ncc7c(n6)-c6ccc(Cl)cc6C(c6c(F)cccc6F)=NC7)cc5)CC4)(CC2)CC3)C(=O)N1` [Compound A91], where the note is “Table 2”, the “Percentage … by 100 nM Compound in Jurkat Cells” value is on record as “+ (Degradation ≤ 30%)” and the “Percentage … by 1 µM Compound in Jurkat Cells” value is listed as “+ (Degradation ≤ 30%)”.

As for `O=C1CCN(C23CC(N4CCN(CCNC(=O)c5ccc(Nc6ncc7c(n6)-c6ccc(Cl)cc6C(c6c(F)cccc6F)=NC7)cc5)CC4)(C2)C3)C(=O)N1` [Compound A92], under “Table 2”, the “Percentage … by 100 nM Compound in Jurkat Cells” value is “+ (Degradation ≤ 30%)” and the “Percentage … by 1 µM Compound in Jurkat Cells” value is given as “+ (Degradation ≤ 30%)”.

With `O=C1CCN(c2ccc(N3CCC4(CC3)CC(NC(=O)c3ccc(Nc5ncc6c(n5)-c5ccc(Cl)cc5C(c5c(F)cccc5F)=NC6)cc3)C4)c(F)c2)C(=O)N1` [Compound A93], under “Table 2”, the “Percentage … by 100 nM Compound in Jurkat Cells” value is listed as “++ (30% < Degradation ≤ 70%)” and the “Percentage … by 1 µM Compound in Jurkat Cells” value is on record as “+++ (Degradation > 70%)”.

With `O=C1CCN(c2ccc(N3CCN(CCNc4ccc(Nc5ncc6c(n5)-c5ccc(Cl)cc5C(c5c(F)cccc5F)=NC6)cc4)CC3)cc2)C(=O)N1` [Compound A108], for the setting “Table 2”, the “Percentage … by 100 nM Compound in Jurkat Cells” value is on record as “+ (Degradation ≤ 30%)” and the “Percentage … by 1 µM Compound in Jurkat Cells” value is “+ (Degradation ≤ 30%)”.

On to `O=C1CCN(c2ccc(N3CCN(CCn4ccnc4-c4ccc(Nc5ncc6c(n5)-c5ccc(Cl)cc5C(c5c(F)cccc5F)=NC6)cc4)CC3)cc2)C(=O)N1` [Compound A111], for which, where the note is “Table 2”, the “Percentage … by 100 nM Compound in Jurkat Cells” value was “+ (Degradation ≤ 30%)” and the “Percentage … by 1 µM Compound in Jurkat Cells” value is “+ (Degradation ≤ 30%)”.

Turning to `O=C1CCN(c2ccc([C@H]3C[C@H](N4CC(NC(=O)c5ccc(Nc6ncc7c(n6)-c6ccc(Cl)cc6C(c6c(F)cccc6F)=NC7)cc5)C4)C3)nc2)C(=O)N1` [Compound A113], under “Table 2”, the “Percentage … by 100 nM Compound in Jurkat Cells” value is recorded as “+++ (Degradation > 70%)” and the “Percentage … by 1 µM Compound in Jurkat Cells” value is “++ (30% < Degradation ≤ 70%)”.

As for `O=C1CCN(c2ccc([C@H]3C[C@@H](N4CC(NC(=O)c5ccc(Nc6ncc7c(n6)-c6ccc(Cl)cc6C(c6c(F)cccc6F)=NC7)cc5)C4)C3)nc2)C(=O)N1` [Compound A114], for the setting “Table 2”, the “Percentage … by 100 nM Compound in Jurkat Cells” value is reported as “+++ (Degradation > 70%)” and the “Percentage … by 1 µM Compound in Jurkat Cells” value is on record as “+++ (Degradation > 70%)”.

Turning to `Cc1ccc(N2CCN(CCC#Cc3cccc(Nc4ncc5c(n4)-c4ccc(Cl)cc4C(c4c(F)cccc4F)=NC5)c3)CC2)cc1N1CCC(=O)NC1=O` [Compound A117], for the setting “Table 2”, the “Percentage … by 100 nM Compound in Jurkat Cells” value is reported as “++ (30% < Degradation ≤ 70%)” and the “Percentage … by 1 µM Compound in Jurkat Cells” value is recorded as “++ (30% < Degradation ≤ 70%)”.

Take `O=C1CCN(c2ccc(N3CCC4(CC3)CC(NC(=O)c3ccc(Nc5ncc6c(n5)-c5ccc(Cl)cc5C(c5ccccc5Cl)=NC6)cc3)C4)nc2)C(=O)N1` [Compound A119]: where the note is “Table 2”, the “Percentage … by 100 nM Compound in Jurkat Cells” value was “+++ (Degradation > 70%)” and the “Percentage … by 1 µM Compound in Jurkat Cells” value was “+++ (Degradation > 70%)”.

Take `O=C1CCN(c2cccc(N3CCN(CC#Cc4ccc(Nc5ncc6c(n5)-c5ccc(Cl)cc5C(c5c(F)cccc5F)=NC6)cc4)CC3)c2)C(=O)N1` [Compound A123]: under “Table 2”, the “Percentage … by 100 nM Compound in Jurkat Cells” value is on record as “+ (Degradation ≤ 30%)” and the “Percentage … by 1 µM Compound in Jurkat Cells” value is on record as “+ (Degradation ≤ 30%)”.

Regarding `O=C1CCN(c2ccc(C#CCN3CCn4c(cnc4-c4ccc(Nc5ncc6c(n5)-c5ccc(Cl)cc5C(c5c(F)cccc5F)=NC6)cc4)C3)cc2)C(=O)N1` [Compound A139], for the setting “Table 2”, the “Percentage … by 100 nM Compound in Jurkat Cells” value was “+++ (Degradation > 70%)” and the “Percentage … by 1 µM Compound in Jurkat Cells” value is “+++ (Degradation > 70%)”.

Turning to `O=C1CCN(c2cnc(N3CCC(N4CCN(c5ccc(Nc6ncc7c(n6)-c6ccc(Cl)cc6C(c6c(F)cccc6F)=NC7)cc5)C(=O)C4)CC3)s2)C(=O)N1` [Compound A154], for the setting “Table 2”, the “Percentage … by 100 nM Compound in Jurkat Cells” value was “+++ (Degradation > 70%)” and the “Percentage … by 1 µM Compound in Jurkat Cells” value is on record as “++ (30% < Degradation ≤ 70%)”.

Consider `O=C1CCN(c2ccc(N3CCC(Cn4cnc(-c5ccc(Nc6ncc7c(n6)-c6ccc(Cl)cc6C(c6c(F)cccc6F)=NC7)cc5)c4)CC3)nc2)C(=O)N1` [Compound A159], for which, under “Table 2”, the “Percentage … by 100 nM Compound in Jurkat Cells” value was “+++ (Degradation > 70%)” and the “Percentage … by 1 µM Compound in Jurkat Cells” value is listed as “+++ (Degradation > 70%)”.

For `O=C1CCN(c2ccc(N3CC(Cn4cnc(-c5ccc(Nc6ncc7c(n6)-c6ccc(Cl)cc6C(c6c(F)cccc6F)=NC7)cc5)c4)C3)nc2)C(=O)N1` [Compound A160], where the note is “Table 2”, the “Percentage … by 100 nM Compound in Jurkat Cells” value is “++ (30% < Degradation ≤ 70%)” and the “Percentage … by 1 µM Compound in Jurkat Cells” value is on record as “++ (30% < Degradation ≤ 70%)”.

As for `Cc1c(N2CCC(C#Cc3cccc(Nc4ncc5c(n4)-c4ccc(Cl)cc4C(c4c(F)cccc4F)=NC5)c3)CC2)cccc1N1CCC(=O)NC1=O` [Compound A161], under “Table 2”, the “Percentage … by 100 nM Compound in Jurkat Cells” value is reported as “+ (Degradation ≤ 30%)” and the “Percentage … by 1 µM Compound in Jurkat Cells” value is on record as “++ (30% < Degradation ≤ 70%)”.
